Assay results from PubChem BioAssay (NCI).
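In this assay, cells in 96-well plates receive the compound at five concentrations for 48 hours. Endpoints are linearly interpolated between the surrounding concentrations. The concentration for 50% growth inhibition is given as GI50. TGI: concentration producing complete growth inhibition.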

What was measured:
Assay in all cases: growth of human tumour cells (NCI), 48 h
[1] = system: SF-268 CNS
[2] = system: CCRF-CEM leukemia
[3] = system: EKVX NSCLC
[4] = system: MCF7 breast
[5] = system: RPMI-8226 leukemia
[6] = system: SNB-19 CNS
[7] = system: HOP-92 NSCLC
[8] = system: SNB-75 CNS
[9] = system: SF-295 CNS
[10] = system: NCI-H460 lung
[11] = system: SK-MEL-5 melanoma
[12] = system: HOP-62 NSCLC
[13] = system: CAKI-1 renal
[14] = system: HCC-2998 colon
[15] = system: M14 melanoma
[16] = system: OVCAR-3 ovarian
[17] = system: A498 renal
[18] = system: NCI-H23 lung
[19] = system: SK-MEL-28 melanoma
[20] = system: MALME-3M melanoma
[21] = system: HL-60(TB) leukemia
[22] = system: 786-0 renal
[23] = system: IGROV1 ovarian
[24] = system: COLO 205 colon
[25] = system: BT-549 breast
[26] = system: PC-3 prostate
[27] = system: U251 CNS
[28] = system: LOX IMVI melanoma
[29] = system: OVCAR-8 ovarian
[30] = system: MDA-MB-231 breast
[31] = system: MDA-MB-435
[32] = system: MDA-MB-468 breast
[33] = system: ACHN renal
[34] = system: K-562 leukemia
[35] = system: HT29 colon
[36] = system: KM12 colon
[37] = system: NCI-H522 lung
[38] = system: DU-145 prostate
[39] = system: SR leukemia
[40] = system: OVCAR-5 ovarian
[41] = system: HS 578T breast
[42] = system: UACC-257 melanoma
[43] = system: MOLT-4 leukemia
[44] = system: UACC-62 melanoma
[45] = system: SK-OV-3 ovarian
[46] = system: T-47D breast
[47] = system: OVCAR-4 ovarian
[48] = system: SK-MEL-2 melanoma
[49] = system: SN12C renal
[50] = system: SW-620 colon
[51] = system: TK-10 renal
[52] = system: RXF 393 renal
[53] = system: A549 NSCLC
[54] = system: HCT-15 colon
[55] = system: NCI-H226 lung
[56] = system: SF-539 CNS

CN1C(=O)/C(=C/c2ccc3ncsc3c2)NC1=NC12CC3CC(CC(O)(C3)C1)C2
GI50 [1]: 4.47 µM
TGI [1]: 34.5 µM
GI50 [2]: 1920 nM
TGI [2]: 8.18 µM
GI50 [3]: 4.25 µM
TGI [3]: > 100 µM
GI50 [4]: 2980 nM
TGI [4]: > 100 µM
GI50 [5]: 1980 nM
TGI [5]: 6.83 µM
GI50 [6]: 3.47 µM
TGI [6]: > 100 µM
GI50 [7]: 5.31 µM
TGI [7]: 56.9 µM
GI50 [8]: 1020 nM
TGI [8]: 7.89 µM
GI50 [9]: 5.28 µM
TGI [9]: > 100 µM
GI50 [10]: 2220 nM
TGI [10]: > 100 µM
GI50 [11]: 2020 nM
TGI [11]: 5.07 µM
GI50 [12]: 4.13 µM
TGI [12]: > 100 µM
GI50 [13]: 1640 nM
TGI [13]: > 100 µM
GI50 [14]: 7.66 µM
TGI [14]: > 100 µM
GI50 [15]: 4.28 µM
TGI [15]: 34.4 µM
GI50 [16]: 1400 nM
TGI [16]: 6.18 µM
GI50 [17]: 1600 nM
TGI [17]: 6.68 µM
GI50 [18]: 2480 nM
TGI [18]: 13.9 µM
GI50 [19]: 2570 nM
TGI [19]: 8.69 µM
GI50 [20]: 2980 nM
TGI [20]: 8.25 µM
GI50 [21]: 3.2 µM
TGI [21]: 8.15 µM
GI50 [22]: 4.02 µM
TGI [22]: > 100 µM
GI50 [23]: 2820 nM
TGI [23]: > 100 µM
GI50 [24]: 3.18 µM
TGI [24]: 30.5 µM
GI50 [25]: 1170 nM
TGI [25]: 10.3 µM
GI50 [26]: 3.73 µM
TGI [26]: > 100 µM
GI50 [27]: 3.14 µM
TGI [27]: > 100 µM
GI50 [28]: 2520 nM
TGI [28]: > 100 µM
GI50 [29]: 3.01 µM
TGI [29]: > 100 µM
GI50 [30]: 4.26 µM
TGI [30]: 85.4 µM
GI50 [31]: 3.69 µM
TGI [31]: 20 µM
GI50 [32]: 1480 nM
TGI [32]: 15.9 µM
GI50 [33]: 892 nM
TGI [33]: > 100 µM
GI50 [34]: 1700 nM
TGI [34]: > 100 µM
GI50 [35]: 3.85 µM
TGI [35]: 17.8 µM
GI50 [36]: 2810 nM
TGI [36]: > 100 µM
GI50 [37]: 768 nM
TGI [37]: 4.49 µM
GI50 [38]: 2970 nM
TGI [38]: > 100 µM
GI50 [39]: 534 nM
TGI [39]: 5.37 µM
GI50 [40]: 5.12 µM
TGI [40]: > 100 µM
GI50 [41]: 2160 nM
TGI [41]: 8.97 µM
GI50 [42]: 3.59 µM
TGI [42]: 12.5 µM
GI50 [43]: 2220 nM
TGI [43]: 22.3 µM
GI50 [44]: 2220 nM
TGI [44]: 9.09 µM
GI50 [45]: 2210 nM
TGI [45]: > 100 µM
GI50 [46]: 3.32 µM
TGI [46]: > 100 µM
GI50 [47]: 9.29 µM
TGI [47]: > 100 µM
GI50 [48]: 1980 nM
TGI [48]: 9.48 µM
GI50 [49]: 2070 nM
TGI [49]: 49.6 µM
GI50 [50]: 2740 nM
TGI [50]: 17.3 µM
GI50 [51]: 4.44 µM
TGI [51]: > 100 µM
GI50 [52]: 1850 nM
TGI [52]: 12.2 µM
GI50 [53]: 1980 nM
TGI [53]: > 100 µM
GI50 [54]: 2130 nM
TGI [54]: > 100 µM
GI50 [55]: 2700 nM
TGI [55]: > 100 µM
GI50 [56]: 1290 nM
TGI [56]: 5.82 µM
